In general, Ki refers to a measure of affinity in units of concentration, obtained from inhibition or displacement. A higher Ki goes with lower affinity.

The target of the experiment is T1, aryl hydrocarbon receptor (AhR) (Mus musculus, UniProt P30561).
T1 sequence (P30561 10-848): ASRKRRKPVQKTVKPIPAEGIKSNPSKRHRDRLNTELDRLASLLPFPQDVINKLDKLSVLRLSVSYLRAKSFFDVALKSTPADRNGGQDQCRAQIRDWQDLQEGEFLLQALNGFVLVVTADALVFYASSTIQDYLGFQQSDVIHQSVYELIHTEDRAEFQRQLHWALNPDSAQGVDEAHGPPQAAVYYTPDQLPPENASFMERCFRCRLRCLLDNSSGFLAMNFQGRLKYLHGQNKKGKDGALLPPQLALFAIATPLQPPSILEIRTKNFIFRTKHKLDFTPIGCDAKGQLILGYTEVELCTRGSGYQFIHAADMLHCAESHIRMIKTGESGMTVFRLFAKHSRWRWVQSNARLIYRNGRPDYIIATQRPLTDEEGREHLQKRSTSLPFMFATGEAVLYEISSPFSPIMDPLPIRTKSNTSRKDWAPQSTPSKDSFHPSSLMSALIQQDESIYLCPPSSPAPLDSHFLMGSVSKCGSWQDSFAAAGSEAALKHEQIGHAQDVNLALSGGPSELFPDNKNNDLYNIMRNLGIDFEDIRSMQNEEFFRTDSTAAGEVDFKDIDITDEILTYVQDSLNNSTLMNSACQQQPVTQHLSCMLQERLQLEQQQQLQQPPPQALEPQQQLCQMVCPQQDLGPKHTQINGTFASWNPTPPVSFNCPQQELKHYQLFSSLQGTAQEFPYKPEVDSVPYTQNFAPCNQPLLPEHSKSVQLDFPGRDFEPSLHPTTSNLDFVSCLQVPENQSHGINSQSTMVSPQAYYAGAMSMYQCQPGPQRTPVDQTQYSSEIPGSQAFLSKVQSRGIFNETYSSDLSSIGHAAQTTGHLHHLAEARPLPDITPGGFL
The experiment can be described thus: radioligand competition with [3H]TCDD. The class given is binding. (In general: Displacement assays read how much labelled ligand stays bound in the presence of the test substance.)

Molecules are shown by their SMILES.

Regarding `Nc1ccccc1C(=O)C[C@H](N)C(=O)O` [L-kynurenine], the Ki stood at 21.6 µM.

The record behind these values is article PMC4098076 (Nature, 2014).
